{"source": "patent US20250346890A1", "about": "“LEUKEMIA TREATMENT” (Deutsches Krebsforschungszentrum, priority 2019, published 2025)", "key": {"ID1": {"test_system": "ID1", "assay": "qRT-PCR analysis of ID1 in THP-1 cells", "type": "cell-based, human", "conditions": "ATRA treatment", "protocol": "(§1) Cultured cells were lysed in Macherey-Nagel RAI buffer containing 1% β-mercaptoethanol and total RNAs were isolated using NucleoSpin RNA isolation kit (Macherey-Nagel 740955). Reverse transcription and PCR amplification were performed. Primers used in this study are listed in Supplementary Table 1. Graphs show relative gene expressions to GAPDH. […] Statistical analyses were performed using PRISM7 software with unpaired t-test or one-way ANOVA test."}, "THP-1 cells": {"test_system": "THP-1 cells", "assay": "Monocyte-macrophage differentiation of THP-1 cells (FACS / qRT-PCR of CD14, CD11B)", "type": "cell-based, human", "protocol": "as §1\nFor analyzing macrophage differentiation of THP-1, cells were harvested, pelleted and resuspended in ice-cold blocking buffer (PBS supplemented with 1% BSA and 0.1% NaN3). Cells were treated with Fc Receptor Binding Inhibitor as recommended by the manufacturer (eBioscience 14916173) and stained directly with FITC/APC-conjugated antibodies diluted in blocking buffer or with non-conjugated primary antibodies followed by fluorochrome-labeled secondary antibodies. Isotype-matched antibodies were used as controls. Dead cells were excluded by counterstaining with propidium iodide. For analyzing apoptosis of THP-1, cells were fixed in 4% PFA, permeabilized by MeOH and blocked with PBS supplemented with 1% BSA and 0.1% Tween-20. Cells were stained with anti-active Caspase-3 antibody and fluorochrome-labeled secondary antibody. FACS Samples were analyzed with FACSCalibur or FACSCanto (BD Biosciences). 10,000 events per samples were acquired, and results were processed with Cell Quest or FACSDiva software (BD Biosciences). For BMP4 stimulation, cells were treated with 5 and 25 ng ml^−1 recombinant human BMP4 protein (R&D systems 314-BP). 100, 300 and 1000 nM LDN […] (Tocris 6053) were used for rescue assay. For the THP-1 cell number quantification and differentiation validation in vivo, bone marrow cells were harvested from tibias of NSG mice and red blood cells were removed by ACK Lysing Buffer (Gibco A1049201). Cells were stained and analyzed as above. Here, 50,000 PI-negative events per samples were acquired.\n(§2) THP-1 cells were treated with 0.3, 1.0 and 3.0 μg ml^−1 goat polyclonal anti-RSPO2 antibodies (R&D systems AF3266) or goat polyclonal GFP antibodies (ABIN 100085). After 48 hours, medium was replaced including fresh antibodies—and incubated another 24 hours. Western blot analysis and FACS analyses were performed as discussed above.\nThe sequences of shRSPO2 and shControl (Table 1) were synthesized, inserted into the transfer plasmid Tet-pLKO-puro (Addgene 21915) and validated by sequencing. Lentivirus was produced with the 3rd generation lentiviral system according to the protocol available at the Trono lab as described (www.epfl.ch/labs/tronolab/). THP-1 cells were infected with lentivirus with 8 μg ml^−1 Polybrene (Sigma TR-1003) and selected with 0.5 μg ml^−1 puromycin (Calbiochem 540411). Single cell clones were obtained by limiting dilutions. The shRNA expression of clones was validated by monitoring RSPO2 expression after doxycycline treatment (1.0 μg ml^−1) for 3 days."}, "Smad1": {"test_system": "Smad1", "assay": "Western blot of pSmad1 and tSmad1 in THP-1 cells", "type": "cell-based, human", "conditions": "THP-1 cells", "protocol": "Cultured cells were rinsed with cold PBS and lysed in Triton lysis buffer ([…] Tris-Cl, pH 7.5, 1% Triton X-100, 150 mM NaCl, 1 mM EDTA, 1 mM EGTA, 1 mM β-glycerophosphate, 1 mM Na3 VO4) or RIPA buffer with complete Protease Inhibitor Cocktail (Roche 11697498001). Lysates were mixed with Laemmli buffer with β-mercaptoethanol and boiled at 95° C. for 5 min to prepare SDS-PAGE samples. Western blot images were acquired with SuperSignal West pico ECL (ThermoFisher 34580) or Clarity Western ECL (Biorad 1705061) using LAS-3000 system (FujiFilm). Quantification of blots was done using ImageJ software.\nas §2"}, "BMP signaling": {"test_system": "BMP signaling", "assay": "BMP-reporter assay in Xenopus embryos", "type": "in vivo, Xenopus laevis", "protocol": "In vitro fertilization, microinjection and culture of Xenopus embryos were performed as previously described (Gawantka et al. (1995), EMBO J 14, 6268-6279). X. laevis embryos were microinjected with reporter DNAs, in vitro transcribed mRNAs or antisense morpholino oligonucleotide (Mo) using Harvard Apparatus microinjection system. Mos for rspo2 (Kazanskaya et al (2004, loc. cit.), lrp6, chordin, bmp4, znrf3 and standard control were purchased from GeneTools. rspo2^ΔTSP Mo was designed based on rspo2 sequence. X. laevis 4-cell stage embryos were microinjected 5 nl per each blastomere equatorially and cultured until indicated stages. Equal amount of total mRNA or Mo were injected by adjustment with ppl or standard control Mo. Scoring of phenotypes was executed blind, and data are representative images from two independent experiments. Embryos in each image were selected using Magnetic Lasso tool or Magic Wand tool of Adobe Photoshop CS6 software, and pasted into the uniform background color for presentation. Statistical analyses show Chi-square tests."}, "ALK3": {"test_system": "ALK3", "assay": "Western blot analysis of ALK3 in injected Xenopus embryos", "type": "in vivo, Xenopus laevis", "conditions": "Xenopus embryos coinjected with alk3-EYFP mRNA", "protocol": "Injected Xenopus embryos were harvested at stage 15 to 18, homogenized in NP-40 lysis buffer (2% NP-40, 20 mM Tris-HCl pH 7.5, 150 mM NaCl, 10 mM NaF, 10 mM Na3VO4, 10 mM sodium pyrophosphate, 5 mM EDTA, 1 mM EGTA, 1 mM PMSF, and complete Protease Inhibitor Cocktail with a volume of 20 μl per embryo. Lysates were cleared with CFC-113 (Honeywell 34874), followed by centrifugation (14,000 rpm, 10 min at 4° C.), boiling at 95° C. for 5 min with NuPAGE Sample Buffer. 0.5-1 embryos per lane were loaded for SDS-PAGE analysis."}, "AML cells": {"test_system": "AML cells", "assay": "Cytarabine (AraC) treatment of THP-1 TetOn-shRNA clones", "type": "cell-based", "conditions": "Dox and AraC treatment"}, "[1]": {"target": "T1, recombinant human RSPO2 (Peprotech 120-43) (human, UniProt Q6UXX9 22-243)", "T1 construct": "also called R-spondin 2", "assay": "in vitro binding assay: plate-coated recombinant RSPO2, ALK3^ECD-AP conditioned medium, bound AP chemiluminescence; Scatchard plot", "protocol": "High binding 96-well plates (Greiner M5811) were coated with 2 μg ml⁻¹ of recombinant human RSPO1 (Peprotech 120-38), RSPO2 (Peprotech 120-43), RSPO3 (Peprotech 120-44) or FGF8b (Peprotech 100-25) recombinant protein reconstituted in bicarbonate coating buffer (50 mM NaHCO₃, pH 9.6) overnight at 4° C. Coated wells were washed three times with TBST (TBS, 0.1% Tween-20) and blocked with 5% BSA in TBST for 1 hour at room temperature. 1.5 U ml⁻¹ of ALK3^ECD-AP or control conditioned medium was incubated overnight at 4° C. Wells were washed six times with TBST and bound AP activity was measured by the chemiluminescent SEAP Reporter Gene Assay kit (Abcam ab 133077). For ZNRF3-ALK3 binding assay, plates were coated with recombinant human ZNRF3 Fc Chimera protein (R&D systems 7994-RF). ALK3^ECD-AP was preincubated with RSPO2-Flag, RSPO2^ΔTSP-Flag conditioned medium or recombinant RSPO protein prior to treatment. Control conditioned medium and vesicles were used as control. […] Statistical analyses show unpaired t-tests."}, "[2]": {"target": "T2, human ALK3-HA expressed in HEK293T cells (human, UniProt P36894 24-532)", "T2 construct": "whole, on cells; also called HA-tagged ALK3; BMPR1A", "assay": "cell surface binding assay on HEK293T cells transfected with human ALK3-HA", "protocol": "Cell surface binding assays were carried essentially out as previously described (Dosch et al. (1997), Development 124, 2325-2334). In brief, human ALK3-HA and Xenopus tropicalis LGR4 DNA were transfected in HEK293T cells, and incubated with 1.5 U ml⁻¹ conditioned media for 3 hours on ice. After several washes and crosslinking, cells were treated with 2 mM Levamisole for 20 min to inactivate endogenous AP activities and developed with BM-Purple (Sigma 11442074001). Cells were mounted with Fluoromount G. Images were obtained using LEICA DMIL microscope/Canon DS126311 camera."}}, "data": [{"molecule": "CC1=C(/C=C/C(C)=C/C=C/C(C)=C/C(=O)O)C(C)(C)CCC1", "note": "[ATRA, (2E,4E,6E,8E)-3,7-dimethyl-9-(2,6,6-trimethylcyclohexen-1-yl) nona-2,4,6,8-tetraenoic acid]", "values": [{"measurement": "ID1 expression", "setting": "ID1", "value": "induced"}, {"measurement": "macrophage differentiation, combination with Dox-induced shRSPO2", "setting": "THP-1 cells; THP-1 TetOn-shRSPO2 clones, Dox+ATRA", "value": "cooperated in inducing macrophage differentiation"}, {"measurement": "CD11B expression", "setting": "THP-1 cells; THP-1 cells, ATRA treatment", "value": "induced"}, {"measurement": "Smad1-phosphorylation", "setting": "Smad1", "value": "induced Smad1-phosphorylation"}]}, {"molecule": "rspo2 Mo: antisense morpholino against Xenopus rspo2, GCCGTCCAAATGCAGTTTCAAC (SEQ ID NO:9) (all phosphorodiamidate morpholino (PMO))", "values": [{"measurement": "endogenous BMP signaling", "setting": "BMP signaling; Xenopus neurulae, injection", "value": "increased endogenous BMP signaling"}, {"measurement": "BMP signaling reporter, coinjection of bmp4 Mo and rspo2 Mo", "setting": "BMP signaling; coinjection with bmp4 Mo", "value": "canceled each other out"}, {"measurement": "ALK3-EYFP protein levels", "setting": "ALK3", "value": "increased ALK3-EYFP protein levels"}]}, {"molecule": "Nc1ccn([C@@H]2O[C@H](CO)[C@@H](O)[C@@H]2O)c(=O)n1", "note": "[cytarabine]", "values": [{"measurement": "sensitivity of AML cells to cytarabine upon loss of RSPO2", "setting": "AML cells", "value": "sensitize"}]}, {"molecule": "ALK3^ECD-AP (extracellular domain of ALK3 fused to alkaline phosphatase, conditioned medium) (receptor, UniProt P36894 24-152, looked up, extracellular domain; also called BMPR1A extracellular domain; not shown: alkaline phosphatase (AP) fusion partner from AP-pCS2+) QNLDSMLHGTGMKSDSDQKKSENGVTLAPEDTLPFLKCYCSGHCPDDAINNTCITNGHCFAIIEEDDQGETTLASGCMKYEGSDFQCKDSPKAQLRRTIECCRTNLCNQYLQPTLPPVVIGPFFDGSIR", "values": [{"measurement": "Kd", "setting": "[1]", "value": "~4.8", "unit": "nM"}]}, {"molecule": "RSPO2^ΔTSP (human RSPO2 TSP1 domain deletion mutant) (ligand, not shown: small tags and cut ends, also called RSPO2^ΔTSP-Flag) QGNRWRRSKRASYVSNPICKGCLSCSKDNGCSRCQQKLFFFLRREGMRQYGECLHSCPSGYYGHRAPDMNRCARCRIENCDSCFSKDFCTKCKVGFYLHRGRCFDECPDGFAPLEETMECVE", "values": [{"measurement": "binding result", "setting": "[2]", "value": "no binding (tested: 1.5 U ml^-1 conditioned media)"}]}]}
